Assays:
CAR T cells [1] = experiment: CAR T cell expansion assay (live cell analysis) in coculture with Eμ-myc cells with or without macrophages; type: cell-based, mouse; details: over 48 h
Protocol: To explore how M2-like macrophages may impact the cellular function of CAR T cells, a syngeneic coculture system was employed (FIG. 2A). […] The BMDMs were differentiated into M2-like macrophages (imMac) by culturing with IL-4 and IL-10 or with media alone without further differentiation to utilize as unpolarized macrophage controls (unMac). The mCherry reporter served as a marker for CAR transduction and CAR T cell expansion.
The expansion of CAR T cells was determined by an Incucyte S3 live cell analysis system (Essen Bioscience). 2×10^4 Eμ-myc cells and 2×10^4 CAR T cells were cocultured in the absence or presence of 0.5×10^4 macrophages (CAR T:Eμ-myc cell:Macrophage=1:1:0.25, unless otherwise indicated in the figure legends) in a 96-well black-walled clear bottom plate in 120 μl of media. Cell images were captured at 4× magnification. The expansion index was calculated by dividing the total integrated red intensity (RCU×μm^2/mm^2) at each time point by the first time point.

Eμ-myc cells = experiment: Luciferase-based killing assay with CAR T cells isolated from initial coculture; type: cell-based, mouse; details: for ability of CAR T cells to kill tumor cells: 48 h initial coculture with Eμ-myc cells in presence of NCX-4016 (100 µM) or PNT (50 µM), no macrophages, lysis at 24 h
Protocol: (§1) 1×10^6 CAR T cells and 1×10^6 Eμ-myc-GFP-FFL cells were cocultured in the absence or presence of 0.25×10^6 macrophages in a 6-well plate in 6 ml of media for 48 h. After initial coculture, cells were harvested, and T cells were isolated using Mouse T Cell Isolation Kit ([…] Technologies). […] Percentage of CAR-expressing T cells was determined with flow cytometry and were subsequently used for downstream assays.
2×10^4 Eu-ALL-GFP-FFL cells were cocultured with CAR T cells at different effector-to-target ratios in a 96-well white-walled plate in 100 μl of media. Following incubation, 100 μl luciferase substrate reagent (ONE-Glo Luciferase assay system, Promega) was added to each well. Target cells alone were plated at the same cell density to determine maximum luciferase signals. Emitted luminescence was detected in the microplate reader (GloMax, Promega). Percent lysis was determined as (1-sample signal/maximum signal)×100.

IFN-γ and TNF-α = experiment: Cytokine secretion assay with CAR T cells isolated from initial coculture; type: cell-based, mouse; details: for secretion of effector cytokines IFN-γ and TNF-α by CAR T cells: 48 h initial coculture with Eμ-myc cells in presence of NCX-4016 (100 µM) or PNT (50 μM), no macrophages, supernatants at 24 h
Protocol: as §1
2×10^4 Eμ-myc cells were cocultured with 2×10^4 CAR T cells in a 96-well plate in a total volume of 100 μl of media. Supernatants were collected and analyzed for IFN-γ and TNF-α secretion using Ella automated immunoassay system (Proteinsimple Bio-techne) according to manufacturer's instructions.

CAR T cells [2] = experiment: Global metabolomics on CAR T cells from coculture; type: cell-based, mouse; details: 48 h coculture with imMac
Protocol: (§2) 1×10^6 CAR T cells and 1×10^6 Eμ-myc-GFP-FFL cells were cocultured in the absence or presence of 0.25×10^6 macrophages in a 6-well plate in 6 ml of media for 48 h. After initial coculture, cells were harvested, and T cells were isolated using Mouse T Cell Isolation Kit (STEMCELL Technologies). T cell purity was 100% as tested by flow cytometry. Percentage of CAR-expressing T cells was determined with flow cytometry and were subsequently used for downstream assays.
Global metabolomic profiling and 13C6-labeled glucose tracing of CAR T cells, 1×10^6 T cells were resuspended in either RPMI-1640 medium (RPMI+10% heat-inactivated dialyzed FBS) or 13C6-glucose substituted RPMI-1640 medium (glucose-free RPMI+10% heat-inactivated dialyzed FBS+11.1 mM ^13C6-glucose). After 4 h incubation, cells were collected, rapidly centrifuged (17,000×g, 10 sec, room temperature), and medium was removed. T cells were washed with 1 ml of ice-cold PBS, and metabolites were extracted with 300 μl of 80% methanol via incubation at −80° C. for 15 min. Samples were centrifuged (17,000×g, 20 min, 4° C.), and supernatants were transferred to an Eppendorf tube and dried in a vacuum evaporator overnight. The dried extracts were resuspended in 20 μl of aqueous 50% methanol, clarified by centrifugation (17,000×g, 20 min, room temperature), and analyzed by LC-HRMS. […]

CAR T cells [3] = experiment: Seahorse assay (ECAR, OCR) on CAR T cells from coculture; type: cell-based, mouse; details: 48 h coculture in the presence of imMac
Protocol: as §2
ECAR and OCR were measured using a Seahorse Extracellular Flux Analyzer (Agilent Technologies). XF96 microplates were coated with CellTak a day before analyses. To assay glycolytic function, T cells were resuspended in glucose-free XF medium supplied with 2 mM L-glutamine and 1 mM sodium pyruvate and seeded at 2×10^5 cells in 180 μl per well. Following incubation in a CO2-free incubator for 60 min at 37° C. for pH stabilization, ECAR was measured in response to 10 mM glucose, 1 μM oligomycin, and 50 mM 2-deoxyglucose. To assay mitochondrial function, T cells were resuspended in XF medium supplied with 2 mM L-glutamine, 1 mM sodium pyruvate, and 10 mM glucose and seeded at 2×10^5 cells in 180 μl per well. Following incubation in a CO2-free incubator for 60 min at 37° C. for pH stabilization, OCR was measured in response to 1 μM oligomycin, 1 μM FCCP, and 0.5 µM rotenone and antimycin.

Eμ-myc B cell tumors = experiment: Survival of Eμ-myc tumor-bearing Rag1−/− mice treated with CAR T cells; type: in vivo, mouse; details: combination of 1928z CAR T cells and L-NIL (20 mg/kg i.p. once per day) compared to 1928z CAR T cells alone
Protocol: Six-to 10-week-old Rag1/-mice of both sexes were intraperitoneally (i.p.) injected with 3×10^6 Eμ-myc-GFP-FFL cells to generate tumors localized in peritoneal cavity. Tumor engraftment was verified by bioluminescence imaging one day before CAR T cell transfer. Mice were randomized to different treatment groups without differences in pre-treatment tumor load. Seven days after tumor cell inoculation, mice were injected i.p. with 5×10^6 CAR T cells in 300 μl PBS. For survival experiments, L-NIL or PBS was administered i.p. once per day at 20 mg/kg body weight starting on the same day of tumor cell injection. […] Bioluminescence imaging was performed by IVIS Lumina III In Vivo Imaging System (PerkinElmer) with Living Image software (PerkinElmer).

[4] = CAR T cells cocultured with Eμ-myc cells without macrophages
[5] = cocultures of CAR T cells and Eμ-myc cells with imMac

C=C(CC(=O)OCCCCCCCC)C(=O)O [4-OI, 4-octyl itaconate]
CAR T cell expansion (CAR T cells [1]; [4]): impaired CAR T cell expansion

CC(=N)NCCCC[C@H](N)C(=O)O [L-NIL, L-N6-(1-Iminoethyl)-lysine]
CAR T cell expansion (CAR T cells [1]; [5]): complete rescue of CAR T cell expansion
capacity of CAR T cells to kill (lyse) tumor cells (Eμ-myc cells; CAR T cells isolated after 48 h initial coculture with imMac, then cocultured with fresh Eμ-myc cells, 24 h): preserved the capacity of CAR T cells to kill tumor cells
production of effector cytokines IFN-γ and TNF-α by CAR T cells (IFN-γ and TNF-α; CAR T cells isolated after 48 h initial coculture with imMac, then cocultured with fresh Eμ-myc cells): preserved
depletion of F1,6BP, G3P and DHAP in CAR T cells cocultured with imMac (CAR T cells [2]): reversal
glycolytic and oxidative metabolic capabilities of CAR T cells (ECAR, OCR) (CAR T cells [3]): preserved glycolytic and oxidative metabolic capabilities of CAR T cells
survival of tumor-bearing mice (Eμ-myc B cell tumors): significantly improved survival

CC(=O)Oc1ccccc1C(=O)Oc1cccc(CO[N+](=O)[O-])c1 [NCX-4016]
CAR T cell expansion (CAR T cells [1]; [4]): inhibition of CAR T cell expansion
ability of CAR T cells to kill tumor cells (Eμ-myc cells): diminished ability of CAR T cells to kill tumor cells
secretion of effector cytokines IFN-γ and TNF-α by CAR T cells (IFN-γ and TNF-α): diminished

O=NOO [PNT, peroxynitrite]
CAR T cell expansion (CAR T cells [1]; [4]): inhibition of CAR T cell expansion
ability of CAR T cells to kill tumor cells (Eμ-myc cells): diminished ability of CAR T cells to kill tumor cells
secretion of effector cytokines IFN-γ and TNF-α by CAR T cells (IFN-γ and TNF-α): diminished

CC1(C)N([O])C(c2ccc(C(=O)O)cc2)=[N+]([O-])C1(C)C [c-PTIO, carboxyl-PTIO]
CAR T cell expansion (CAR T cells [1]; [5]): partially rescued expansion of CAR T cells

NC(=O)NCCC[C@H](N)C(=O)O [citrulline]
CAR T cell expansion (CAR T cells [1]; [4]): did not impact expansion of CAR T cells

N=C(NO)NCC[C@H](N)C(=O)O [nor-NOHA]
CAR T cell expansion (CAR T cells [1]; cocultures with imMac, physiological arginine concentration (150 μM)): failed to rescue CAR T cell expansion
CAR T cell expansion (CAR T cells [1]; cocultures with imMac, supraphysiological arginine concentration (1.15 mM)): did not restore CAR T cell expansion

— patent publication US20260083844A1, “DOWNREGULATING INOS TO INCREASE CAR-T KILLING” (H. LEE MOFFITT CANCER CENTER AND RESEARCH INSTITUTE INC., priority 2022, published 2026)
